Columns and labels:
[1] = target: T1, A1-T458S/T459C (mutant ASCT1) (Homo sapiens, UniProt P43007, T458S/T459C); test: Two electrode voltage clamp, substrate-activated anion current in oocytes expressing A1-T458S/T459C; assay type: cell-based; settings: for EC50: A1-T458S/T459C in oocytes, NO3−-containing buffer, current at +60 mV
T1 construct: expressed in transfected cells; host or cells: Xenopus laevis oocytes (cRNA injection)
T1 sequence (P43007 1-532 T458S/T459C): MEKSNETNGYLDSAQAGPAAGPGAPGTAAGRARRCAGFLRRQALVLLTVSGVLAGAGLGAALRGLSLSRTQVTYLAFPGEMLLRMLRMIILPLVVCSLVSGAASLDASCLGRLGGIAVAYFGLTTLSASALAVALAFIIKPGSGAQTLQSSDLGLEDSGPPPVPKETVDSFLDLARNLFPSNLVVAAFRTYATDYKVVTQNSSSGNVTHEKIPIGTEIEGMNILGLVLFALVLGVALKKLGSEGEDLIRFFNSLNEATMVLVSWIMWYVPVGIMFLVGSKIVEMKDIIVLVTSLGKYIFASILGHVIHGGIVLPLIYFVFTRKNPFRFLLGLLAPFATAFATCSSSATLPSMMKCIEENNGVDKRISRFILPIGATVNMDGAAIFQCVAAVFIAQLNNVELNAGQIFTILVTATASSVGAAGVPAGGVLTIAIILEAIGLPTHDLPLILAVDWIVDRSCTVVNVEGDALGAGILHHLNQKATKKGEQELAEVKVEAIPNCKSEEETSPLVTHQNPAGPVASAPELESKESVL
Experimental: All chemicals were obtained from Sigma unless otherwise stated. Stage V oocytes were harvested from female Xenopus laevis (frogs) which were obtained from Nasco (Fort Alkinson, USA). Frogs were anaesthetised with 6.5 mM tricaine neutralised with 7.14 mM sodium bicarbonate. After making an incision in the abdomen of the frog, ovarian sacs were removed and stored in OR-2 buffer (82.5 mM NaCl, 2 mM KCl, 1 mM MgCl2, 5 mM hemisodium HEPES, pH 7.5). This surgical procedure follows a protocol (#2016/970) approved by the University of Sydney Animal Ethics Committee under the Australian Code of Practice for the Care and Use of Animals for Scientific Purposes. To isolate oocytes, the ovarian sacs were cut into small sections before being digested by agitation with 2 mg per ml Collagenase A for 1–2 h. Following digestion, defoliculated oocytes were initially rinsed with OR-2, followed by frog Ringer’s solution (96 mM NaCl, 2 mM KCl, 1 mM MgCl2, 1.8 mM CaCl2, 5 mM hemisodium HEPES, pH 7.5). A total of 20 ng of transporter cRNA was injected into oocytes which were stored in frog Ringer’s solution supplemented with 0.1% gentamycin, 50 μg per ml tetracycline, 2.5 mM pyruvate and 0.5 mM theophylline at 16–18 °C.
After 2–4 days of microinjection, current recordings were made using the two electrode voltage clamp technique with a Geneclamp 500 amplifier (Axon Instruments, Foster City, CA) interfaced with a MacLab 2e chart recorder (ADI Instruments, Sydney, Australia) using the chart software, and a Digidata 1322A (Axon Instruments) controlled by an IBM-compatible computer using the pClamp software (version 10, Molecular Devices, Union City, CA). The current–voltage relationships for substrate elicited conductances were obtained by subjecting cells to 200 ms voltage pulses between −100 mV and + 60 mV in 10 mV steps. Current–voltage relationships were calculated by subtracting steady state current measurements in the absence of substrate from corresponding current measurements in the presence of substrate.
Recording solution for all experiments (except where otherwise stated) was normal frog Ringer’s solution (Cl^−-containing buffer) with complete NO3 ^− substitution for Cl^−. For Na^+ titrations, NMDG^+ was used as the substitute cation. The pH of recording solutions was adjusted using HNO3 and NaOH or KOH. Recordings were made with the bath grounded via a 3 M KCl/agar bridge connected to a 3 M KCl reservoir to minimise offset potentials. Cells were washed with Cl^−-containing buffer between substrate applications to ensure that NO3 loading of the cell was not significant. […]

GltPh-R397C = target: T2, GltPh-R397C (Pyrococcus horikoshii, UniProt O59010, R397C); test: biochemical; assay type: binding; settings: for Apparent number of Na+ ions coupled to binding (n): GltPh-R397C, global fit of isotherms at 10–100 mM Na+, 25 °C
T2 construct: hexa-His (N, cleaved yes); made in house; host or cells: Escherichia coli Top10 (pBAD)
Experimental: Fluorescence-based binding assays were performed by titrating purified protein (50 μg per ml) in 20 mM HEPES/Tris, pH 7.4, 200 mM choline chloride, 0.4 mM n-dodecyl^−β-D-maltopyranoside, 200 nM styryl fluorescent dye RH421 (Invitrogen, Inc., Grand Island, NY) with NaCl, L-ser, L-cys or benzylcysteine at 25 °C[51]. The RH421 dye was excited at 532 nm, and the fluorescence was collected at 628 nm using a QuantaMaster (Photon International Technology, Inc., Edison, NJ). Fluorescence emissions were measured after at least 10 min equilibration to ensure a stabilised signal. The data were analysed using GraphPad Prism version 6.0 for Mac (GraphPad Software, La Jolla California USA). Fractional fluorescence changes were normalised to maximal fluorescence changes, then plotted as a function of ligand concentration and fitted to the Hill equation. All the experiments were performed at least in triplicate.
Analysis of ligand binding data. The voltage sensitive amphipathic dye RH421 reports on Na+ binding to purified GltPh protein in detergent3. RH421 was used to follow Na+ binding to GltPh‐R397C protein either alone or in reactions coupled to binding of amino acids. […]
Coupled ions and amino acid binding was probed by titrating amino acids to the GltPh‐R397C protein in the presence of 10 – 100 mM Na+ ions. The obtained isotherms were analyzed to estimate an apparent number of Na+ ions coupled to binding of the amino acids.
Raw data were first normalized by the initial fluorescence of RH421 and plotted as fraction of fluorescence change (Supplementary […]
total amount of dye and detergent in the assay buffer.
To take into account significant amino acid‐independent Na+ binding, the sets of binding isotherms obtained at variable Na+ concentrations were fitted globally to a simplified binding equation: […]
KD,a is the combined dissociation constant for coupled Na+ and ligand binding and n is the apparent number of coupled ions. Fraction of the protein bound to either Na+ ions alone or to the ions and the […]
Fraction of the protein already bound to Na+ ions before ligand addition is: […]
Fractional fluorescence change Y is fitted to an equation: […]
where Y0 and ∆Y are, respectively, baseline and the signal difference between fully bound and apo […]
KD,a and n were fitted globally for each ligand. Y0 and ∆Y were adjusted for each isotherm independently. […]
individual isotherm to a standard Hill equation, plotted the apparent dissociation constants as functions of Na+ concentrations and compared the values to those predicted using the parameters from the global fits (Supplementary Figure 8).

T2 sequence (O59010 whole entry R397C): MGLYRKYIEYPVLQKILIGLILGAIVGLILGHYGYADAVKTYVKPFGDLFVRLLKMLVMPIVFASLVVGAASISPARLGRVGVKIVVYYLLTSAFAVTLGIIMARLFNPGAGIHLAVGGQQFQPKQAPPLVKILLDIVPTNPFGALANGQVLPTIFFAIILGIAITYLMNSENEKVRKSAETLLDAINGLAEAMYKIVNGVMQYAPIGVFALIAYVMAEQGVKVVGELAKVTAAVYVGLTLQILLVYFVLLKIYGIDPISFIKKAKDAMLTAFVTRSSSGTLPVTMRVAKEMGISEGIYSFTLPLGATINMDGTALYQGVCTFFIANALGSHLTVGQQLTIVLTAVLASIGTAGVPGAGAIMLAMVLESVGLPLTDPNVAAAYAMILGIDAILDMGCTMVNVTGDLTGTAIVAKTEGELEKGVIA

Which “GPNA % inhibition of L-serine activated current” value ([1]; A1-T458S/T459C, GPNA co-applied with EC50 of L-serine, 300 µM GPNA / 1 mM GPNA (Table 1 footnote)) does the source give for N[C@@H](CCC(=O)Nc1ccc([N+](=O)[O-])cc1)C(=O)O [GPNA, glutamyl-p-nitroanilide] here?
Its value is 41 ± 4%.

What about the IC50 ([1]; A1-T458S/T459C, co-applied with EC50 of L-serine, read-out: IC50 for inhibition of L-serine activated current) of the same compound?
The IC50 was 600 ± 200 µM.

For NC(=O)CC[C@H](N)C(=O)O [L-glutamine], which EC50 [1] is on record?
Its EC50 is 90 ± 10 µM.

What about the Kd (GltPh-R397C) of the same compound?
The Kd was 1800 ± 400 µM.

And the “Apparent number of Na+ ions coupled to binding (n)” value (GltPh-R397C)?
Its value is 1.1 ± 0.04.

How did the EC50 [1] turn out when N[C@@H](CO)C(=O)O [L-serine] was run?
The EC50 was 45 ± 5 µM.

And the Kd (GltPh-R397C)?
The Kd was 9 ± 1 µM.

And the “Apparent number of Na+ ions coupled to binding (n)” value (GltPh-R397C)?
Its value is 1.7 ± 0.04.

What does the source list for N[C@@H](CS)C(=O)O [L-cysteine]?
Kd (GltPh-R397C): 31 ± 3 µM; Apparent number of Na+ ions coupled to binding (n) (GltPh-R397C): 1.5 ± 0.04
